Test system: male Syrian hamsters, ear sebaceous glands
Test: Animal model for inhibition of sebum production (hamster ear, HPLC of sebum lipids)
Type: in vivo, Syrian hamster
Settings: 4 weeks; for % Reduction in CE (cholesterol ester) / % Reduction in WE (wax ester): 3-w/v % topical to ears twice daily, five days a week, difference from vehicle control; for Sum CE + WE: summation of % reduction in CE and WE, 3-w/v % topical
Description: Luderschmidt et al describes an animal model for testing whether compounds are capable of modulating sebum secretion. Arch. Derm. Res. 258, 185-191 (1977). This model uses male Syrian hamsters, whose ears contain sebaceous glands. The products of Example 1 and 4 were screened in this model.
Testing for sebum inhibition was carried out in the following manner. Male Syrian hamsters aged 9 to 10 weeks were introduced into the laboratory environment and acclimated for 2 weeks prior to use in the study. Each group consisted of 5 animals and run in parallel with vehicle and positive controls. Prior to administration, 30 mg of each compound was dissolved in 1 mL of a solvent consisting of transcutanol, ethanol, and propylene glycol (20/60/20% v/v) to achieve a final concentration of 3-w/v %.
Animals were dosed topically twice daily, five days a week, for 4 weeks. Each dose consisted of 25 micro liters of vehicle control or drug. The dose was applied to the ventral surfaces of both the right and left ears. All animals were sacrificed approximately 18-24 hours after the final dose. The right ears were collected from each animal and used for sebum analysis.
The ears were prepped for HPLC analysis in the following manner. One 8 mm distal biopsy punch was taken, just above the anatomical “V” mark in the ear to normalize the sample area. The punch was pulled apart. The ventral biopsy surface (the area where the topical dose was directly applied to the sebaceous glands) was retained for testing and the dorsal surface of the biopsy punch was discarded.
Tissue samples were blown with N2 gas and stored at −80° C. under nitrogen until HPLC analysis. In addition to ear samples, an aliquot of each drug and vehicle (at least 250 ul) was also stored at −80° C. for inclusion in the HPLC analysis.
HPLC analysis was carried out on an extract of the tissue sample. Tissue samples were contacted with 3 ml of solvent (a 4:1 admixture of 2,2,4-trimethylpentane and isopropyl alcohol). The mixture was shaken for 15 minutes and stored overnight at room temperature, protected from light. The next morning 1 milliliter of water was added to the sample and shaken for 15 minutes. The sample was then centrifuged at approximately 1500 rpm for 15 minutes. Two ml of the organic phase (top layer) was transferred to a glass vial, dried at 37° C., under nitrogen, for approximately 1 hour, and then lyophilized for approximately 48 hours. The samples were then removed from the lyophilizer and each vial was reconstituted with 600 μl of solvent A (trimethylpentane/tetrahydrofuran (99:1). The samples were then recapped and vortexed for 5 minutes.
200 μl of each sample was then transferred to a pre-labeled 200 μl HPLC vial with 200 μL glass inserts. The HPLC vials were placed in the autosampler tray for the Agilent 1100 series HPLC unit. The Agilent 1100 HPLC system consisted of a thermostated autosampler, a quarternary pump, a column heater, and an A/D interface module. All components were controlled by Agilent ChemStation software. A Waters Spherisorb S3W 4.6×100 mm analytical column was maintained at 30° C. by the Agilent column heater unit. The HPLC autosampler was programmed to maintain the sample temperature at 20 C throughout the run.
10 uL of each sample was injected in triplicate into the column. Two solvents were used for the solvent gradient. Solvent A was an admixture of trimethylpentane and tetrahydrofuran (99:1). Solvent B was ethylacetate. The gradient utilized is described in the table below: […]
The Sedex 75 Evaporative Light Scattering Detector (ELSD) was operated at 45° C. with a gain of 5, and N2 pressure maintained at 3.1 bar. Analog signal obtained by the instrument was sent to the Agilent A/D interface module where it was converted to a digital output. The conversion was based on a 10000-mAU/volt set point and the data rate was set at 10 Hz (0.03 min). The resulting digital output was then feed into the Agilent ChemStation software for integration of the peak area. […]

| SMILES | % Reduction in CE (cholesterol ester) [%] | % Reduction in WE (wax ester) [%] | Sum CE + WE [%] |
| --- | --- | --- | --- |
| CC(C)CC(Oc1ccc(C#N)c(C(F)(F)F)c1)C(=O)NCc1ccccc1 (stereo not drawn) [Example 1, 2-(4-Cyano-3-trifluoromethyl-phenoxy)-4-methyl-pentanoic acid benzylamide] | 32 | 52 | 84 |
| CCCC(Oc1ccc(C#N)c(C(F)(F)F)c1)C(=O)NCc1ccccc1 (stereo not drawn) [Example 4, 2-(4-Cyano-3-trifluoromethyl-phenoxy)-pentanoic acid benzylamide] | 15 | 31 | 46 |
